Test results taken from patent US11926598B1, “1-(4-nitrobenzylideneamino)-5-phenylimidazolidine-2,4-dione as an antimicrobial compound” (KING FAISAL UNIVERSITY, priority 2023, dated 2024).

Legend:
Format in all cases: cell-based
[1] = test system: Bacillus Cereus; test: Agar plate disc-diffusion, antibacterial inhibition zone; settings: Bacillus Cereus (Gram positive)
Procedure: (§1) The agar plate disc-diffusion method was applied. […] The discs were then placed onto the surface of agar plates (nutrient agar for bacteria and Sabouraud's dextrose agar for fungi) seeded with the test organism. Each plate contained 15 mL of the agar medium, previously seeded with 0.2 mL of the broth culture of each organism pregrown for 18 hours. The plates were incubated at 37° C. for 48 hours, and 72 hours for fungi. The inhibition zones was measured in millimeter. Discs impregnated with DMSO were used as a control, and its inhibition zone was subtracted from the tested compound actual inhibition zone.
(§2) The results of the antimicrobial testing can be observed in Tables 1 and 2, below, with ciprofloxacin serving as a reference.

[2] = test system: Pseudomonas aeruginosa; test: as above; settings: Pseudomonas aeruginosa (Gram negative)
Procedure: as §1, §2

[3] = test system: Escherichia coli; test: as above; settings: Escherichia coli (Gram negative)
Procedure: as §1, §2

[4] = test system: Staphylococcus aureus; test: as above; settings: Staphylococcus aureus (Gram positive)
Procedure: as §1, §2

[5] = test system: Aspergillus flavus; test: Agar plate disc-diffusion, antifungal inhibition zone
Procedure: as §1, §2

[6] = test system: Chrysosporium keratinophilum; test: as above
Procedure: as §1, §2

[7] = A = concentration of comp. = 10,000 μL
[8] = B = concentration of comp. = 30.000 μL
[9] = C = concentration of comp. = 50,000 μL

Row | Compound | inhibition zone [1, 7] | inhibition zone [1, 8] | inhibition zone [1, 9] | inhibition zone [2, 7] | inhibition zone [2, 8] | inhibition zone [2, 9] | inhibition zone [3, 7] | inhibition zone [3, 8] | inhibition zone [3, 9] | inhibition zone [4, 7] | inhibition zone [4, 8] | inhibition zone [4, 9] | inhibition zone [5, 7] | inhibition zone [5, 8] | inhibition zone [5, 9] | inhibition zone [6, 7] | inhibition zone [6, 8] | inhibition zone [6, 9]
1 | O=C(O)c1cn(C2CC2)c2cc(N3CCNCC3)c(F)cc2c1=O [Cip., ciprofloxacin] | 29 millimeter | 30 millimeter | 42 millimeter | 29 millimeter | 30 millimeter | 53 millimeter | 30 millimeter | 39 millimeter | 60 millimeter | 43 millimeter | 44 millimeter | 53 millimeter | 29 millimeter | 30 millimeter | 42 millimeter | 29 millimeter | 30 millimeter | 53 millimeter
2 | O=C1NC(=O)N(N=Cc2ccc([N+](=O)[O-])cc2)C1c1ccccc1 (stereo not drawn) [Compound 4, 1-(4-nitrobenzylideneamino)-5-phenylimidazolidine-2,4-dione] | 25 millimeter | 27 millimeter | 37 millimeter | 25 millimeter | 27 millimeter | 40 millimeter | 30 millimeter | 35 millimeter | 51 millimeter | 19 millimeter | 24 millimeter | 30 millimeter | 19 millimeter | 24 millimeter | 35 millimeter | 26 millimeter | 28 millimeter | 50 millimeter
